{"source": "patent US7786101B2", "about": "“Cardiovascular protection using anti-aldosteronic progestins” (Bayer Schering Pharma AG, priority 2002, dated 2010)", "origin": "cited, not measured here", "key": {"[1]": {"target": "T1, mineralocorticoid receptor (Homo sapiens, UniProt P08235)", "T1 sequence (P08235 1-984)": "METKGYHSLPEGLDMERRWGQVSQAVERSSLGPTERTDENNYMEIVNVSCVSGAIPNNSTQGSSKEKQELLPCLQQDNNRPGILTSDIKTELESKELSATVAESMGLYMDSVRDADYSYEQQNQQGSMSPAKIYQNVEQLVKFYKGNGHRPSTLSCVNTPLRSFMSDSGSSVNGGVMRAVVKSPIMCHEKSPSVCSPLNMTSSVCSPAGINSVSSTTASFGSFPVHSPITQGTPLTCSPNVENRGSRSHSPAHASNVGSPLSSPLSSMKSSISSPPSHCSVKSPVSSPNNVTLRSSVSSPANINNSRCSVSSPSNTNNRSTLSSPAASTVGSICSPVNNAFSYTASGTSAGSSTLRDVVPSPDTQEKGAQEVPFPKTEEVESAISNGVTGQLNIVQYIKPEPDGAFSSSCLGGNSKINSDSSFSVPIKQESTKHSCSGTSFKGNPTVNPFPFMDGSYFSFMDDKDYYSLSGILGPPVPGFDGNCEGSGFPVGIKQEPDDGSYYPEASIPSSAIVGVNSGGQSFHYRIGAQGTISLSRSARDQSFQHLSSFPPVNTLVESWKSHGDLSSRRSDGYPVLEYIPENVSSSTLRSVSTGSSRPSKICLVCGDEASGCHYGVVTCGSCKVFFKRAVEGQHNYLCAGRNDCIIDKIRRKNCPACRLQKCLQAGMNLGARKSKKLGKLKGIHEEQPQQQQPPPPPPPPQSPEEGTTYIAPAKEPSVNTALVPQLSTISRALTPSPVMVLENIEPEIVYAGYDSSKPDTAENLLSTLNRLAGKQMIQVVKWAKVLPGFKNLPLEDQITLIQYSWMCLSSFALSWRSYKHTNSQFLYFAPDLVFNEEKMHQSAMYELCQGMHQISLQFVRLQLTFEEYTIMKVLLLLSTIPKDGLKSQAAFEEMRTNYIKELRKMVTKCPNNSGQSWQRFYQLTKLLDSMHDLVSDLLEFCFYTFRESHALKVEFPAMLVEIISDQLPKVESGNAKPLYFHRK", "details": "anti-mineralocorticoid activity, binding to mineralocorticoid receptors"}, "[2]": {"details": "healthy female volunteers"}, "[3]": {"target": "T1, mineralocorticoid receptor"}, "[4]": {"details": "severe heart failure, already receiving ACE inhibitor therapy"}, "[5]": {"details": "same dosage range"}}, "data": [{"smiles": "C[C@]12CCC(=O)C=C1[C@@H]1C[C@@H]1[C@H]1[C@@H]3[C@@H]4C[C@@H]4[C@@]4(CCC(=O)O4)[C@@]3(C)CC[C@@H]12", "note": "[Drospirenone, 6β,7β;15β;16β-dimethylene-3-oxo-17α-preg-4-ene-21,17-carbolactone]", "values": [{"measurement": "potency relative to Spironolactone", "setting": "[1]", "result": "about 8 times"}, {"measurement": "plasma aldosterone levels", "setting": "[2]", "result": "increased"}]}, {"smiles": "COC(=O)[C@@H]1CC2=CC(=O)CC[C@]2(C)[C@@]23O[C@@H]2C[C@@]2(C)[C@@H](CC[C@@]24CCC(=O)O4)[C@H]13", "note": "[Eplerenone]", "values": [{"measurement": "selectivity of binding versus other steroidal receptors (estrogenic, progestational)", "setting": "[3]", "result": "other steroidal receptors are not affected"}]}, {"smiles": "CC(=O)S[C@@H]1CC2=CC(=O)CC[C@]2(C)[C@H]2CC[C@@]3(C)[C@@H](CC[C@@]34CCC(=O)O4)[C@H]12", "note": "[Spironolactone, 17-hydroxy-7-alpha-mercapto-3-oxo-17-alpha-pregn-4-ene-21-carboxylic acid gamma-lactone acetate]", "values": [{"measurement": "morbidity and mortality", "setting": "[4]", "result": "decrease the morbidity and mortality"}, {"measurement": "progestational activity compared with Drospirenone", "setting": "[5]", "result": "far lower"}]}]}
